Assay results taken from ChEMBL document CHEMBL1201862, “PubChem BioAssay data set” (2004).
Calls of active or inactive are those of the source.

Legend:
Hexokinase = Hexokinase (Trypanosoma brucei, UniProt Q38C41); assay: Confirmation assay for inhibitors of Trypanosoma brucei hexokinase 1-Analogue-first series. [Related pubchem assays (depositor defined):AID1430, AID1632, AID2516, AID2560, AID2579, AID2600, AID449725, AID492951]; type: functional
[1] = target: T1, Voltage-gated N-type calcium channel alpha-1B subunit/Amyloid beta A4 precursor protein-binding family A member 1 (Homo sapiens, UniProt Q00975+Q02410); type: protein assay
T1 sequence (Q00975 whole entry): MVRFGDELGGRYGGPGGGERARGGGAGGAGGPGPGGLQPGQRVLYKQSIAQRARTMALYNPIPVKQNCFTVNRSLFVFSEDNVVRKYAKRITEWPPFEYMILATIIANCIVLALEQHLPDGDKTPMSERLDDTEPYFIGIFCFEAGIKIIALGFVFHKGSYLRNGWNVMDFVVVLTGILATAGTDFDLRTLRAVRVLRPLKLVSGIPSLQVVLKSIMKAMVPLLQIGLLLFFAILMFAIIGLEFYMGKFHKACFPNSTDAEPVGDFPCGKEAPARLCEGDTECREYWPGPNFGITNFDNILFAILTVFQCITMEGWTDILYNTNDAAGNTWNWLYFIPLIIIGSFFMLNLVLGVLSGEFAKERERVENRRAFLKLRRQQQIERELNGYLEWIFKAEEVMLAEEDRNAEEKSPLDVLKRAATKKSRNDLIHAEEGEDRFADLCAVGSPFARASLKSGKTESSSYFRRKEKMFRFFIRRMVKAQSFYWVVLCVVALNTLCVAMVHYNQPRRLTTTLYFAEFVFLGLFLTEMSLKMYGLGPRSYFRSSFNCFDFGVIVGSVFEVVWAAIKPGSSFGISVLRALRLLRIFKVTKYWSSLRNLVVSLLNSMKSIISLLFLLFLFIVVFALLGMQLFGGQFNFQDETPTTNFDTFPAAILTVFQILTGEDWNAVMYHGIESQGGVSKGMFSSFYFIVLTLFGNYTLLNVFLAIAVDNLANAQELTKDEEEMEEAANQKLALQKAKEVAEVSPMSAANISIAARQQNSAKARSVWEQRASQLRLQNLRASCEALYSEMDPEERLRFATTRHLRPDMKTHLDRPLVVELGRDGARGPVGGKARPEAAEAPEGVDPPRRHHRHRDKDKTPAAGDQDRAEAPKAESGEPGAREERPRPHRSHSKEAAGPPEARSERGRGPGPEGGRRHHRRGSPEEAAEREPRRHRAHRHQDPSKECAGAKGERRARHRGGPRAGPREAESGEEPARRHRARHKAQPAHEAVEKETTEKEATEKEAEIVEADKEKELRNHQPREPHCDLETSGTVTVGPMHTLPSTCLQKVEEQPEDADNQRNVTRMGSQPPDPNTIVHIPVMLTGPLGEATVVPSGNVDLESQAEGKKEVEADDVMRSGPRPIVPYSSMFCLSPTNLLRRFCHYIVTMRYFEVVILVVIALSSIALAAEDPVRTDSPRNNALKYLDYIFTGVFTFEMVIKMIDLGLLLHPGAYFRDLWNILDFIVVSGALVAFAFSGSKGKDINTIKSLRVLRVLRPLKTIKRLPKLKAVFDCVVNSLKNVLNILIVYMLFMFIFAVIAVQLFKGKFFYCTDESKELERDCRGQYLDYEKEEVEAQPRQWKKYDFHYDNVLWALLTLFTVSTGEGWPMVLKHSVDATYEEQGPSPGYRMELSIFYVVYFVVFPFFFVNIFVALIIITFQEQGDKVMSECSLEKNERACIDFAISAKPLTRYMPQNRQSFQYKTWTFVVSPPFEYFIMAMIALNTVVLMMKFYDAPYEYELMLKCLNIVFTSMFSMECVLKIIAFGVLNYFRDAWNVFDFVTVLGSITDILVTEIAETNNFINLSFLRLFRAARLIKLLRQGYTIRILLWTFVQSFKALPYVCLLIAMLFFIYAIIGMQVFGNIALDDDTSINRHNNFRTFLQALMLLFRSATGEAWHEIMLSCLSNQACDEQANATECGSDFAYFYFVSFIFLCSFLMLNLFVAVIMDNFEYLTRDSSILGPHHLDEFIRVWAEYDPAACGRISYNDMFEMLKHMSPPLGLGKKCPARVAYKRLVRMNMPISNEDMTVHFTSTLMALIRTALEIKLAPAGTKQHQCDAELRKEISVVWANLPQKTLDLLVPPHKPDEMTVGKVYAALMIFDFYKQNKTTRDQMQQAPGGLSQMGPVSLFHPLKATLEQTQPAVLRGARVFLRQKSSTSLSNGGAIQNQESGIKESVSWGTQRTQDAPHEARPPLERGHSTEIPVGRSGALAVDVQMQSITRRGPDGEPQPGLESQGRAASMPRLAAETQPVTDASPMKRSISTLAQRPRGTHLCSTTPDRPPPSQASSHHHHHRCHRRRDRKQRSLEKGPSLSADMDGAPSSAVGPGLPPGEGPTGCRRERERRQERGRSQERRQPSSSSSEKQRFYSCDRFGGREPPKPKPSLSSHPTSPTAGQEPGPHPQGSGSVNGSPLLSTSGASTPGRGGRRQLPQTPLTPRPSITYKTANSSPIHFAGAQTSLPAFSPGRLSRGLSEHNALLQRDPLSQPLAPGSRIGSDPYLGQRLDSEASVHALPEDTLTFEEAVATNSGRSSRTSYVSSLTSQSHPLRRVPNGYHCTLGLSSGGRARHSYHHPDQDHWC
T1 sequence (Q02410 whole entry): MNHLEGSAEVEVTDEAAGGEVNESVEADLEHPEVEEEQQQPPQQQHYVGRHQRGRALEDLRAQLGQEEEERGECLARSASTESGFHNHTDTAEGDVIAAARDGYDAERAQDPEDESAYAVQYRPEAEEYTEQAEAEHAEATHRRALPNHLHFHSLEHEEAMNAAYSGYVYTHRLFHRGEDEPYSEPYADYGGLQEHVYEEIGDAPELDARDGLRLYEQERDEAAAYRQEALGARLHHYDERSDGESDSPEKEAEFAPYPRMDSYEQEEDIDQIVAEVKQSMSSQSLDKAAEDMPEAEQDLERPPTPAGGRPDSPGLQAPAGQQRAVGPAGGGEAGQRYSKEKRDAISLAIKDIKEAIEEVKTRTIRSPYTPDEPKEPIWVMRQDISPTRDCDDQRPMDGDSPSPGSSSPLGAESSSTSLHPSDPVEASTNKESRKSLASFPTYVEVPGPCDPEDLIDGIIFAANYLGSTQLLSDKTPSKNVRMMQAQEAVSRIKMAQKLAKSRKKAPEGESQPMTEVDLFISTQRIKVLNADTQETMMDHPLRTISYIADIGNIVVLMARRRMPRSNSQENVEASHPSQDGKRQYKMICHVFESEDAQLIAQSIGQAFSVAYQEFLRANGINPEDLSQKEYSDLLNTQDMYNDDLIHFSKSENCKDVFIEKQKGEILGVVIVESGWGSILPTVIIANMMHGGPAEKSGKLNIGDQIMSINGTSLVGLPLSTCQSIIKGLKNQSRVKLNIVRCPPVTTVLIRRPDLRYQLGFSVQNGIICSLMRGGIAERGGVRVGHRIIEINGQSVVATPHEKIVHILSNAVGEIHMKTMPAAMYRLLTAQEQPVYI

[2] = target: T1, Voltage-gated N-type calcium channel alpha-1B subunit/Amyloid beta A4 precursor protein-binding family A member 1; type: protein assay; remark: listed apart in the source
[3] = Trypanosoma cruzi growth suppression in host cells – NIH3T3 host cells, beta-gal luminescence, confirmation (AID 2044); type: functional, cell-based;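 further: intracellular parasites grown in NIH/3T3 mouse fibroblasts as host cells; luminescent beta-galactosidase reporter signal from transgenic T. cruzi replicating inside host cells; inhibitors lower the luminescence signal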
[4] = target: T2, Calpain-2 catalytic subunit (Sus scrofa, UniProt P43367); assay: m-calpain protease blockers, concentration series – biochemical, fluorogenic peptide substrate, dose response (AID 1420); type: functional
T2 sequence (P43367 whole entry): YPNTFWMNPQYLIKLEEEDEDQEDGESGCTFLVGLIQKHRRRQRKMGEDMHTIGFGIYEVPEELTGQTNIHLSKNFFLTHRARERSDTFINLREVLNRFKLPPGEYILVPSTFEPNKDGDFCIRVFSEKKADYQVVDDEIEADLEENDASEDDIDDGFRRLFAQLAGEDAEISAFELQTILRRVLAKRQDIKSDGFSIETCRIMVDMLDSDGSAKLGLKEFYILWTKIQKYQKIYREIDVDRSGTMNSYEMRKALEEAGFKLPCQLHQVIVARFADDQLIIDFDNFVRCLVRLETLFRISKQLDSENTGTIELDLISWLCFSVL

[5] = NIH3T3 cell viability loss – ATP luminescence, mouse fibroblasts, counter-screen, dose response (AID 2010); type: functional, cell-based;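 further: cells exposed to compound for about 90 hours before reading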
[6] = Intein inhibitors as potential Tuberculosis drugs, a cytotoxicity screen. [Related pubchem assays (depositor defined):AID2221, AID2223, AID434968, AID435010, AID449749, AID449750, AID489010]; type: functional
[7] = target: T3, Replicative DNA helicase DnaB (Mycobacterium tuberculosis, UniProt P9WMR3); assay: DnaB intein splicing inhibitors, dose response, biochemical, cell-free fluorescence (AID 449749); type: functional
T3 sequence (P9WMR3 whole entry): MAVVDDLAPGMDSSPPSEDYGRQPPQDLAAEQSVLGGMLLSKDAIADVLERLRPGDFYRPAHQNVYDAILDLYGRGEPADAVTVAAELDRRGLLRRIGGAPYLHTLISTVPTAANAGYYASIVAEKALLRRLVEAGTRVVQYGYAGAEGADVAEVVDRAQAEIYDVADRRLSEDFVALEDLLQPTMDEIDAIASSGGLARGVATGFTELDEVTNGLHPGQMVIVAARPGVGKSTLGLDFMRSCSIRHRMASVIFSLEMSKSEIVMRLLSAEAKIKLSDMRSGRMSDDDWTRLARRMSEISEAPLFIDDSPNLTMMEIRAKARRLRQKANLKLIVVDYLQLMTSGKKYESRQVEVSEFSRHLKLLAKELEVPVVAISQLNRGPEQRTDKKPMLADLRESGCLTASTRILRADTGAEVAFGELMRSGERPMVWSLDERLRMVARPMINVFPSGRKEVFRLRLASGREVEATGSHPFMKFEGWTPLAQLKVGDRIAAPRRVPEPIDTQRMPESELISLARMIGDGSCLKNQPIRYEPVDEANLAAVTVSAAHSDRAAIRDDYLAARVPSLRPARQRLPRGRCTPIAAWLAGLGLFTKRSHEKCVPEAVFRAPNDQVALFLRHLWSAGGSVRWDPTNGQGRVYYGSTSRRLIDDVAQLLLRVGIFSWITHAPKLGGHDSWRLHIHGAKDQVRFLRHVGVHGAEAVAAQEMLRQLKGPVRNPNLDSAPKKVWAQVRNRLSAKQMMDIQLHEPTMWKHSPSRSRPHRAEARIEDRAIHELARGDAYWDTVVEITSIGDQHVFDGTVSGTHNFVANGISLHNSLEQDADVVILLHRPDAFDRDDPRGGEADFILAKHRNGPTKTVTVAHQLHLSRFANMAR

Protein RecA = target: T4, Protein RecA (Mycobacterium tuberculosis, UniProt P9WHJ3); assay: Fluorescence Cell-Free Homogeneous Dose Retest to Identify Inhibitors of RecA-Intein Splicing Activity. [Related pubchem assays (depositor defined):AID2097, AID2223, AID489010, AID492950]; type: functional
T4 sequence (P9WHJ3 whole entry): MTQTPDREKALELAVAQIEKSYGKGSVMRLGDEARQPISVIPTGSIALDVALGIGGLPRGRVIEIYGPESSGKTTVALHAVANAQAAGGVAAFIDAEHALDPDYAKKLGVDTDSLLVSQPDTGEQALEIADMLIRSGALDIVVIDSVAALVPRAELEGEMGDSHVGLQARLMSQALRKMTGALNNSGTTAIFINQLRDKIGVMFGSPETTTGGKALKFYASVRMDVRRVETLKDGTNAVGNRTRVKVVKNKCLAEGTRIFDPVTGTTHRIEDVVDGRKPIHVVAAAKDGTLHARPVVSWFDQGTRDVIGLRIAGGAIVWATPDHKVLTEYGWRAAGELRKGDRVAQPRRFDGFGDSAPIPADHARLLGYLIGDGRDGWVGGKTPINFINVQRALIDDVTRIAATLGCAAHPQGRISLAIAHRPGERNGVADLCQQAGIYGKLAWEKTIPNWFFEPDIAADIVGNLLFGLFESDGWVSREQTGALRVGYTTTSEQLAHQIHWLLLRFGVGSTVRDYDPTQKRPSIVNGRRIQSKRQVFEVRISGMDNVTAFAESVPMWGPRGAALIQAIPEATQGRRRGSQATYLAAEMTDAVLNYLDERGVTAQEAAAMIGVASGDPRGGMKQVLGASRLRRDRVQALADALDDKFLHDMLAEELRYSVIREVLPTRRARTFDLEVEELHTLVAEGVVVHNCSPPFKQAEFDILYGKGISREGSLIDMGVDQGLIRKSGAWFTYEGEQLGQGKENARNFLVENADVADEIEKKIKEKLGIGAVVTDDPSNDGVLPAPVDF

CAAX prenyl protease 2 = CAAX prenyl protease 2 (Saccharomyces cerevisiae S288c, UniProt Q03530); type: biochemical
cells [8] = type: functional, cell-based
[9] = target: Luciferin 4-monooxygenase (Photinus pyralis, UniProt P08659); assay: inhibition of purified Photinus pyralis luciferase – biochemical, luminescence, dose response (AID 1891)
[10] = Luminescence Cell-Based Dose Confirmation HTS to Identify Inhibitors of Platelet Dense Granule Release. [Related pubchem assays: 1663 (Primary HTS), 1678 (Summary of Project)]; type: functional
cells [11] = type: functional, cell-based; remark: listed apart in the source
[12] = target: T5, Kappa-type opioid receptor (Homo sapiens, UniProt P41145); type: functional
T5 sequence (P41145 whole entry): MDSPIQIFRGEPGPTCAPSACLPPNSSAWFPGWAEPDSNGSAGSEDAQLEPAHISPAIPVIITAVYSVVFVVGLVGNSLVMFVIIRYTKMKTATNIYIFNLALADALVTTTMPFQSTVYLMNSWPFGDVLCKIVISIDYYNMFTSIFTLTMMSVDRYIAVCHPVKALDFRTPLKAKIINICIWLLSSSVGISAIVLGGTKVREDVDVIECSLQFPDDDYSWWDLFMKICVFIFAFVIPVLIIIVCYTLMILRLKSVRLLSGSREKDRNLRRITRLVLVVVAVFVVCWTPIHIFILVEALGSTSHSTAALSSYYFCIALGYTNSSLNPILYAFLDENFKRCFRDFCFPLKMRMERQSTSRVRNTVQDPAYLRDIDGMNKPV

Beta-galactosidase = Beta-galactosidase (Escherichia coli, UniProt Q8VNN2); type: functional
[13] = target: T5, Kappa-type opioid receptor; type: functional; remark: listed apart in the source
[14] = THP-1 cell cytotoxicity, dose response, cytotoxicity control for non-replicating M. tuberculosis project (AID 489025); type: functional
[15] = HepG2 cell cytotoxicity, dose response, cytotoxicity control for non-replicating M. tuberculosis project (AID 489018); type: functional; conditions: Mycobacterium tuberculosis
[16] = Vero E6 cell cytotoxicity, dose response, cytotoxicity control for non-replicating M. tuberculosis project, secondary assay (AID 492998); type: functional, VeroE6; conditions: Vero C1008
cells [17] = type: functional
INS1 = assay: INS-1E survival protection against cytokine death – cell-based, luminescence, retest, dose response (AID 449756); type: functional; conditions: Rattus norvegicus;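 further: cell death triggered by IL-1 beta plus TNF-alpha plus IFN-gamma mixture; protective hits raise ATP signal compared with cytokine alone wells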
[18] = test system: Streptococcus sp. 'group A'; assay: Streptococcus pyogenes SK(-)GAS viability under kanamycin – luminescence, BacTiterGlo, confirmation, counter-screen for streptokinase expression inhibitor project, dose response (AID 1900); type: functional, organism-based
Streptococcus = assay: GAS UMAA2166 growth inhibition – luminescence, BacTiterGlo, counter-screen for streptokinase expression inhibitor project, dose response (AID 1915); type: functional, organism-based;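 further: potency for reduction of bacterial viability or growth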
fMet-Leu-Phe receptor = target: T6, fMet-Leu-Phe receptor (Homo sapiens, UniProt P21462); assay: formyl peptide receptor binders – dose response (AID 519); type: functional
T6 sequence (P21462 whole entry): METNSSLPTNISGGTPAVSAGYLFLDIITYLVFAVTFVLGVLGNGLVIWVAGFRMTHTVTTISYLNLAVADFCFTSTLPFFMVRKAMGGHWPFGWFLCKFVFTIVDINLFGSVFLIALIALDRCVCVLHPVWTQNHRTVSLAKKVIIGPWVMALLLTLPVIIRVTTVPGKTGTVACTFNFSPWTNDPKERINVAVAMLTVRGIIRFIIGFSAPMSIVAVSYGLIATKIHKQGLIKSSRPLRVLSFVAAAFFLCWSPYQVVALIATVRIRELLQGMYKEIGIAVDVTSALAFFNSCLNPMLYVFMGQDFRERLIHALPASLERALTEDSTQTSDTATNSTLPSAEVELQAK

[19] = target: T7, Dual specificity protein phosphatase 3 (Homo sapiens, UniProt P51452); assay: VHR1 phosphatase inhibitors, primary screen, biochemical, absorbance, uHTS (AID 1654)
T7 sequence (P51452 whole entry): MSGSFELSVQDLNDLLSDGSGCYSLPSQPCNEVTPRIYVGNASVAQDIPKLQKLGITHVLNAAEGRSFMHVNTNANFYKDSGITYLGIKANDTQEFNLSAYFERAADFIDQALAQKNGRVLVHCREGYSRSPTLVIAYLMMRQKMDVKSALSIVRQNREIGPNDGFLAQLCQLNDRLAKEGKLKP

[20] = target: T7, Dual specificity protein phosphatase 3; assay: VHR1 phosphatase inhibitors, biochemical (AID 1878)
[21] = target: T8, Dual specificity protein phosphatase 6 (Rattus norvegicus, UniProt Q64346); assay: inhibition of rat DUSP6 enzyme activity – biochemical, in vitro, primary screen (AID 425)
T8 sequence (Q64346 whole entry): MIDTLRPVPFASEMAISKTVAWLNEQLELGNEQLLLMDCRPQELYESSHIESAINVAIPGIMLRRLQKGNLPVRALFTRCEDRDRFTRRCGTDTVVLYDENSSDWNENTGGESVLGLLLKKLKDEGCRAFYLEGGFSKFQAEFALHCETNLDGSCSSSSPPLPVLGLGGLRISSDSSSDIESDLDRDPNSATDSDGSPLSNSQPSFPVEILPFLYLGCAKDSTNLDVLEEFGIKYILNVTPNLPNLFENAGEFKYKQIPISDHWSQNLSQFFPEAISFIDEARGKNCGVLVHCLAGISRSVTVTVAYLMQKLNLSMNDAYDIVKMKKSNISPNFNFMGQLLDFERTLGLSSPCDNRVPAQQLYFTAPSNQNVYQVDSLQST

[22] = target: Induced myeloid leukemia cell differentiation protein Mcl-1 (Homo sapiens, UniProt Q07820); type: functional
[23] = target: Eukaryotic translation initiation factor 4E (Mus musculus, UniProt P63073); assay: blockers of eIF4G binding by eIF4E – biochemical, TR-FRET, dose response (AID 855); type: functional;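 further: potency for disrupting eIF4E binding to eIF4GI seen as loss of FRET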
Eukaryotic translation initiation factor 4E, sequence (P63073 whole entry): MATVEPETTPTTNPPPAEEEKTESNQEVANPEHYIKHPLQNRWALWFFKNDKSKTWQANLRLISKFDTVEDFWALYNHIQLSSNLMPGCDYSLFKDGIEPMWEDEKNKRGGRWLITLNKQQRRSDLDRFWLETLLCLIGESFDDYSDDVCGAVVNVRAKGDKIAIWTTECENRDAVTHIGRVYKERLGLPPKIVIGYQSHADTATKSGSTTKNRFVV

[24] = target: T9, Polyadenylate-binding protein 1 (Homo sapiens, UniProt P11940); assay: MLLE binding blockers, Cy5 peptide tracer – biochemical, fluorescence polarization, Cy5-PAM2 peptide, secondary, miRNA deadenylation inhibitor project, dose response (AID 602260); type: functional; conditions: read-out: IC50_Mean
T9 sequence (P11940 whole entry, the tested form may be a part): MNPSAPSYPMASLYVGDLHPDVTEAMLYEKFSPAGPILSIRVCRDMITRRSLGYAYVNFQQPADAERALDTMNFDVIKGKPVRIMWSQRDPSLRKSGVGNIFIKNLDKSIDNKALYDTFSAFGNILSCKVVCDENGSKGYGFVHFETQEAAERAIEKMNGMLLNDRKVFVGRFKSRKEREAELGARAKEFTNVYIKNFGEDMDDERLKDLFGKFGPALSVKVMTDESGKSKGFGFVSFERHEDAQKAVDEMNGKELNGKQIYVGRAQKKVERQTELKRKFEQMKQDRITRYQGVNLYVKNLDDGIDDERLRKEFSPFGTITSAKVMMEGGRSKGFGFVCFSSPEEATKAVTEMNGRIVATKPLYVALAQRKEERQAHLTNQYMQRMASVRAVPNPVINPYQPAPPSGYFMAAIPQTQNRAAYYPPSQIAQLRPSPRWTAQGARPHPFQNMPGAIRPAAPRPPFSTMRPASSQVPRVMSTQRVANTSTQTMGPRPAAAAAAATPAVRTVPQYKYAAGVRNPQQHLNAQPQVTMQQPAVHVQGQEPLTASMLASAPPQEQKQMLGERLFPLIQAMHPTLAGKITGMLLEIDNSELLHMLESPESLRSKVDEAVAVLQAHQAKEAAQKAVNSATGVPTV

[25] = target: T9, Polyadenylate-binding protein 1; assay: MLLE domain peptide-binding blockers, IC50 – biochemical, fluorescence polarization, FITC-PAM2 peptide, dose response (AID 602259); type: functional; conditions: read-out: IC50_Mean

Hexokinase, sequence (Q38C41 whole entry): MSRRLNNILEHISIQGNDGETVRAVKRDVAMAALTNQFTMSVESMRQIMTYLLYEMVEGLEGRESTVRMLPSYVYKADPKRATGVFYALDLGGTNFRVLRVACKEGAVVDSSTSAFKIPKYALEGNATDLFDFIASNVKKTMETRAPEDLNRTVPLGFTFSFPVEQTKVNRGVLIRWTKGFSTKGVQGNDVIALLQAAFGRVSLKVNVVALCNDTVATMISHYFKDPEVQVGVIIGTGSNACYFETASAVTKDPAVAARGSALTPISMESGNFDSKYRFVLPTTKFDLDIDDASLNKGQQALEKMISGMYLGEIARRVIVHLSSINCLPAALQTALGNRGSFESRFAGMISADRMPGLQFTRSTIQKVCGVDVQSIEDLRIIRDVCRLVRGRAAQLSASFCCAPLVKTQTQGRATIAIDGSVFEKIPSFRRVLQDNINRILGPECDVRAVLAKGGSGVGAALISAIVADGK

CC(C)(C)c1ccc(C(=O)Nc2cc(Cl)c(Br)cc2C(=O)O)cc1
IC50 (Hexokinase): 0.976 µM (active)

O=C(Nc1ccncc1NC(=O)c1cccc([N+](=O)[O-])c1)c1cccc([N+](=O)[O-])c1
IC50 [1]: 18.9 µM (active) | IC50 [2]: > 50 µM (inactive)

CC(C)(C)C1CCc2sc(C(=O)NNC(=O)CCl)cc2C1 (centres undefined)
EC50 [3]: 1.75 µM (active) | IC50 [4]: 3.86 µM (active) | EC50 [5]: > 60 µM (inconclusive) | CC50 [6]: 3.58 µM (active) | AC50 [7]: 4.29 µM (active) | EC50 (Protein RecA): 1.47 µM (active)

Cc1cccc2sc(N(CCN(C)C)C(=O)c3ccc4ccccc4c3)nc12
AC50 (CAAX prenyl protease 2): > 100 µM (inactive)

COc1ccc(C(=O)Nc2ccccc2C(=O)N/N=C/c2ccccn2)cc1OC
EC50 (cells [8]): 8.88 µM (active) | EC50 [9]: 1.3 µM (active) | EC50 [10]: 0.298 µM (active) | EC50 (cells [11]): 16.6 µM (active) | IC50 [12]: 7.91 µM (active) | EC50 (Beta-galactosidase): > 31.5 µM (inactive) | IC50 [13]: > 32 µM | CC50 [14]: 5.29 µM (active) | CC50 [15]: 14.3 µM (active) | CC50 [16]: > 20 µM (active) | IC50 (cells [17]): 36.9 µM (active) | AC50 (INS1): 2.45 µM (active)

OB1OCc2cc(C(F)(F)F)ccc21
IC50 (Hexokinase): > 25 µM (inactive)

O=C(Nc1nnc(-c2ccccc2Cl)o1)c1ccc(S(=O)(=O)N2CCCCCC2)cc1
EC50 [18]: 0.266 µM (active) | EC50 (Streptococcus): 0.793 µM (active) | CC50 [14]: 3.49 µM (active) | CC50 [15]: 7.66 µM (active) | CC50 [16]: 4.8 µM (active) | IC50 (cells [17]): 14.2 µM (active) | Ki (fMet-Leu-Phe receptor): > 66.7 µM (inactive)

Cc1c(/N=N/c2c(-c3ccc([N+](=O)[O-])cc3)[nH]n(C(N)=S)c2=O)cccc1[N+](=O)[O-]
IC50 [19]: 3.37 µM (active) | IC50 [1]: 16.3 µM (active) | IC50 [2]: > 50 µM (inactive) | IC50 [20]: 1.71 µM (active) | IC50 [21]: 7.01 µM (active) | IC50 [22]: 6.05 µM (active) | IC50 [23]: 50 µM (inactive) | IC50 [24]: > 66 µM (inactive) | IC50 [25]: > 66 µM (inactive)
